Target: T1, B. megaterium PBGD (Priestia megaterium, UniProt Q8GCA8)
T1 construct: gene hemC; His tag removed for crystals; gene encodes 310 residues; about 35 kDa; monomer; cofactor on Cys241; residues 42-62 disordered
Assay: X-ray crystal structure, […] and […] Å
Type: binding
Details: covalent (thioether to Cys241), pH 6.5-6.8, partial occupancy

T1 sequence (Q8GCA8 entry or part of it): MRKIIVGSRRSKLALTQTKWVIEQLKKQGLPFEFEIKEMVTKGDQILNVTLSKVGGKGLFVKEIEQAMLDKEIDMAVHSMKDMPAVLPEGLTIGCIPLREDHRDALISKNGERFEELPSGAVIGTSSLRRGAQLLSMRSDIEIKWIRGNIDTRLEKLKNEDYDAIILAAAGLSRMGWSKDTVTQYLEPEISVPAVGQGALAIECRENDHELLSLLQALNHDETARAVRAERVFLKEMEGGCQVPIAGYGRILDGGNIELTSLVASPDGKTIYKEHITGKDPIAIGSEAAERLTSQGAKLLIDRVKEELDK

Row | SMILES | X-ray crystal structure, 1.46 and 1.60 Å (X-ray cannot tell dipyrromethane from dipyrromethene, PDB also 4mlq) | X-ray crystal structure, 1.46 and 1.60 Å (shared with reduced conformer, inactive oxidized form, PDB also 4mlv)
1 | N[C@@H](CSCc1[nH]c(Cc2[nH]cc(CCC(=O)O)c2CC(=O)O)c(CCC(=O)O)c1CC(=O)O)C(=O)O [dipyrromethane cofactor] | one of which corresponds to the fully reduced dipyrromethane | –
2 | N[C@@H](CSCc1[nH]c(CC2NC(=O)C(CCC(=O)O)=C2CC(=O)O)c(CCC(=O)O)c1CC(=O)O)C(=O)O (some centres unmarked) [dipyrromethanone] | – | the 'oxidized' conformation of the cofactor is actually the partly reduced dipyrromethanone form

Source: PMC3949521 (Acta Crystallographica Section D: Biological Crystallography, 2014)
